{"source": "patent US12491199B2", "about": "“Polycannabinoids, compounds, compositions and methods of use” (priority 2020, dated 2025)", "format_in_all_cases": "physicochemical", "key": {"[1]": {"assay": "Non-isothermal thermogravimetric analysis (TGA), onset of thermal degradation", "procedure": "(§1) Materials and Methods: Cannabidiol (CBD) was purchased from EcoGen BioSciences and used as received. Cannabigerol (CBG) was purchased from Mile High Labs, Inc and used as received. All other chemicals were purchased from Sigma Aldrich and used without further purification unless otherwise noted. Unless otherwise indicated, ^1H NMR was collected using a Bruker AVANCE 500 MHz instrument. Thermo Gravimetric Analysis was conducted using a TA Instruments TGA Q-500 and DSC was collected using a TA Instruments DSC Q-20. GPC was taken using a WATERS GPC equipped with a 1515 HPLC Pump and Waters 717Plus Autoinjector. Ultra Performance Liquid Chromatograph tandem Mass Spectrometry (UPLC/MS/MS) was conducted using a Waters Acquity UPLC-TQD equipped with a PDA detector.\nThermogravimetric Analysis (TGA): Non-Isothermal degradation: Samples were heated in pre-tared platinum pans under nitrogen atmosphere to 700° C. at a heating rate of 10° C./minute."}, "[2]": {"assay": "Isothermal degradation by TGA in the presence of oxygen", "conditions": "60 minutes", "procedure": "as §1\nIsothermal degradation: Samples were heated in pre-tared pans while in the presence of oxygen to either 150, 160, 180 or 220° C. at a heating rate of 10° C./minute. They were left at the high temperature for 60 minutes. The degradation rate was determined from the slope of the weight % vs Time plots."}, "[3]": {"assay": "Heat induced by-product analysis (open vials, 175° C., 30 minutes, convection oven; NMR, UPLC/MS/MS)", "conditions": "for remaining residue after heating: 100 mg sample, open vial, convection oven; for remaining residue after heating / NMR analysis of the sample residues after heating / amount of by-product formation (LC/MS): 175° C., 30 minutes", "procedure": "Heat induced by-product analysis experiment: Open vials containing 100 mg of CBD, CBD-Diacetate, and Poly(CBD) were heated at 175° C. for 30 minutes in a laboratory convection oven. After heating, the remaining residue was weighed at 89.64 mg, 91.35 mg, and 99.86 mg for each compound, respectively. Samples were then analyzed using ^1H NMR. […] Ultra performance liquid chromatograph tandem mass spectrometry (UPLC/MS/MS) was conducted to compare formed by-products against nine known cannabinoid standards.\nPopular types of consumer cannabis products include tinctures, vaporizer liquids, and baked foods, while potential pharmaceutical products include oil extracts, solutions, and tablet. In each case, cannabinoids within the products are subjected to elevated temperatures for short periods of time during manufacturing or, in the case of vaporizer liquids, when being consumed. FIGS. 5-6 show the rates of degradation after short-term exposure to temperatures from 150-220° C. Table 1 includes the values of onset temperatures for thermal degradation and degradation rates for each compound. The phytocannabinoids degraded at rates from 0.2 wt % per minute to ˜10 wt % per minute at 150° C. and 220° C., respectively. Thermal degradation of both poly(cannabinoid)s remained less than 0.1 wt % over the same range, stabilizing the phytocannabinoid. Open vials containing 100 mg samples of CBD, CBD-diacetate, and poly(CBD-adipate) were heated at 175° C. in a laboratory convection oven for 30 minutes, after which 89.64 mg, 91.35, and 99.86 mg remained of each sample, respectfully. […]. Conversion of phytocannabinoids to poly(cannabinoid)s offers a preservative effect, eliminating the production of additional cannabinoids."}, "[4]": {"conditions": "nitrogen atmosphere, heated to 700° C. at 10° C./minute"}, "[5]": {"conditions": "heated under the same conditions after purging thoroughly with argon"}}, "note": "Entries after “also recorded” stand apart in the source; their conditions may differ. Where two headings read alike, the source gives them in different places.", "data": [{"smiles": "C=C(C)[C@@H]1CCC(C)=C[C@H]1c1c(O)cc(CCCCC)cc1O", "note": "[CBD, cannabidiol]", "values": [{"measurement": "Td, onset for thermal degradation according to non-isothermal TGA", "setting": "[1]; [4]", "value": 184, "unit": "°C"}, {"measurement": "extrapolated onset degradation temperature (TGA)", "setting": "[1]; non-isothermal TGA, FIGS. 3-4", "value": 184, "unit": "°C"}, {"measurement": "Degradation rate from isothermal TGA", "setting": "[2]; 150° C.", "value": 0.18, "unit": "weight % loss per minute"}, {"measurement": "Degradation rate from isothermal TGA", "setting": "[2]; 160° C.", "value": 0.43, "unit": "weight % loss per minute"}, {"measurement": "Degradation rate from isothermal TGA", "setting": "[2]; 180° C.", "value": 0.94, "unit": "weight % loss per minute"}, {"measurement": "Degradation rate from isothermal TGA", "setting": "[2]; 220° C.", "value": 9.09, "unit": "weight % loss per minute"}, {"measurement": "remaining residue after heating", "setting": "[3]", "value": 89.64, "unit": "mg"}, {"measurement": "NMR analysis of the sample residues after heating", "setting": "[3]", "value": "New peaks formed; also recorded: formation of additional compounds"}, {"measurement": "amount of by-product formation (LC/MS)", "setting": "[3]", "value": 10.68, "unit": "%"}, {"measurement": "Δ8-THC detected using 1H NMR", "setting": "[3]; [5]", "value": 0.21, "unit": "%"}, {"measurement": "Δ9-THC detected using 1H NMR", "setting": "[3]; [5]", "value": 0.16, "unit": "%"}]}, {"smiles": "C=C(C)[C@@H]1CCC(C)=C[C@H]1c1c(OC(C)=O)cc(CCCCC)cc1OC(C)=O", "note": "[CBD-Diacetate, Cannabidiol-Diacetate]", "values": [{"measurement": "Td, onset for thermal degradation according to non-isothermal TGA", "setting": "[1]; [4]", "value": 185, "unit": "°C"}, {"measurement": "extrapolated onset degradation temperature (TGA)", "setting": "[1]; non-isothermal TGA, FIGS. 3-4", "value": 185, "unit": "°C"}, {"measurement": "Degradation rate from isothermal TGA", "setting": "[2]; 150° C.", "value": 0.54, "unit": "weight % loss per minute"}, {"measurement": "Degradation rate from isothermal TGA", "setting": "[2]; 160° C.", "value": 0.54, "unit": "weight % loss per minute"}, {"measurement": "Degradation rate from isothermal TGA", "setting": "[2]; 180° C.", "value": 0.84, "unit": "weight % loss per minute"}, {"measurement": "Degradation rate from isothermal TGA", "setting": "[2]; 220° C.", "value": 5.65, "unit": "weight % loss per minute"}, {"measurement": "remaining residue after heating", "setting": "[3]", "value": 91.35, "unit": "mg"}, {"measurement": "NMR analysis of the sample residues after heating", "setting": "[3]", "value": "New peaks formed"}, {"measurement": "amount of by-product formation (LC/MS)", "setting": "[3]", "value": 25.32, "unit": "%"}, {"measurement": "NMR analysis of the sample residues after heating", "setting": "[3]; listed as CBD-diacetate", "value": "formation of additional compounds"}]}, {"smiles": "CCCCCc1cc(O)c(C/C=C(\\C)CCC=C(C)C)c(O)c1", "note": "[CBG, cannabigerol]", "values": [{"measurement": "Td, onset for thermal degradation according to non-isothermal TGA", "setting": "[1]", "value": 191, "unit": "°C"}, {"measurement": "extrapolated onset degradation temperature (TGA)", "setting": "[1]", "value": 191, "unit": "°C"}]}, {"smiles": "CCCCCc1cc(OC(C)=O)c(C/C=C(\\C)CCC=C(C)C)c(OC(C)=O)c1", "note": "[CBG-Diacetate, Cannabigerol-Diacetate]", "values": [{"measurement": "Td, onset for thermal degradation according to non-isothermal TGA", "setting": "[1]; [4]", "value": 223, "unit": "°C"}, {"measurement": "Degradation rate from isothermal TGA", "setting": "[2]; 150° C.", "value": 0.08, "unit": "weight % loss per minute"}, {"measurement": "Degradation rate from isothermal TGA", "setting": "[2]; 160° C.", "value": 0.11, "unit": "weight % loss per minute"}, {"measurement": "Degradation rate from isothermal TGA", "setting": "[2]; 180° C.", "value": 0.49, "unit": "weight % loss per minute"}, {"measurement": "Degradation rate from isothermal TGA", "setting": "[2]; 220° C.", "value": 1.92, "unit": "weight % loss per minute"}]}]}
